How the values were obtained:
[1] = after oral administration; cited from earlier work
[2] = pH and clarity of 5.55 mg/mL sodium oleate solution; assay type: physicochemical; settings: sodium oleate 5.55 mg/mL solution
Protocol: After the initial pH measurement discussed above, the compositions of this embodiment have a pH value of at least 7.5. In some embodiments the PH is in the range of between 7.5-10.5 or between 8.5-10.8. This pH value is observed a short period, e.g. a few days, after formation of the emulsion, and is to be contrasted with the initial pH value which is measured substantially immediately after the formation of the emulsion. Preferably, the fatty acid content of the oleate is high, e.g. at least about 80% and the alkalinity of oleate when tested as an aqueous solution is also relatively high, e.g. at least about pH of 10.3 of 0.55% W/V solution in water.

[3] = Emulsion formation of Form-81 with sodium oleate from different sources; assay type: physicochemical; settings: Form-81 with sodium benzoate, after mixing oil and water phases and stirring
Protocol: The solution was heated to about 55-68° C., while stirring aprepitant was added and continued stirring until all of the drug is dissolved. After cooling to room temperature, Sodium oleate was added to mixture and stirred to get uniform dispersion. Ethanol quantity adjusted by adding ethanol to mixture to compensate loss. Weight of container was recorded at each stage.
Oil phase slowly added to water phase slowly while water phase stirred at 1000 RPM using overhead stirrer.
Coarse emulsion was milled using microfluidizer (Microfluidizer LM-25/30), […].

SMILES	oral bioavailability [1]	Clarity [2]	pH of 5.55 mg/mL solution [2]	Emulsion formation [3]	Emulsion formation ([3]; listed as oleate from Loba Chemie)
C[C@@H](O[C@H]1OCCN(Cc2n[nH]c(=O)[nH]2)[C@H]1c1ccc(F)cc1)c1cc(C(F)(F)F)cc(C(F)(F)F)c1 [Aprepitant]	about 69%				
CCCCCCCC/C=C\CCCCCCCC(=O)[O-].[Na+] [Sodium Oleate from Lipoid, Germany, Sodium Oleate]		Hazy solution	10.36	slightly viscous emulsions	
CCCCCCCC/C=C\CCCCCCCC(=O)[O-].[Na+] [Sodium Oleate from Doosan, South Korea, Sodium Oleate]		Clear solution		slightly viscous emulsions	
CCCCCCCC/C=C\CCCCCCCC(=O)[O-].[Na+] [Sodium Oleate from Loba Chemie, India, Sodium Oleate]		Clear solution	10.78	Free flowing emulsion.	free-flowing emulsion

— patent US20240398706A1, “INJECTABLE FORMULATIONS OF APREPITANT” (Good Health, LLC, priority 2021, published 2024)
